Results from US9718821B2, “Pyridopyrimidinone inhibitors of kinases” (AbbVie Inc., priority 2012, dated 2017).

Each molecule was assayed against T1, GST-tagged-Wee1 kinase (Homo sapiens, UniProt P30291) (assay: Wee1 time-resolved fluorescence equilibrium binding assay (displacement of Oregon Green-labeled ATP-competitive kinase probe)). Details: enzyme binding data; GST-tagged-Wee1 kinase 2 nM, fluorescent probe 300 nM, inhibitor 0.003 to 10 micromolar, 1 hour incubation; read-out: Wee-1 binding (Ki nM).
T1 construct: purchased Carnabio 05-177
T1 sequence (P30291 whole entry): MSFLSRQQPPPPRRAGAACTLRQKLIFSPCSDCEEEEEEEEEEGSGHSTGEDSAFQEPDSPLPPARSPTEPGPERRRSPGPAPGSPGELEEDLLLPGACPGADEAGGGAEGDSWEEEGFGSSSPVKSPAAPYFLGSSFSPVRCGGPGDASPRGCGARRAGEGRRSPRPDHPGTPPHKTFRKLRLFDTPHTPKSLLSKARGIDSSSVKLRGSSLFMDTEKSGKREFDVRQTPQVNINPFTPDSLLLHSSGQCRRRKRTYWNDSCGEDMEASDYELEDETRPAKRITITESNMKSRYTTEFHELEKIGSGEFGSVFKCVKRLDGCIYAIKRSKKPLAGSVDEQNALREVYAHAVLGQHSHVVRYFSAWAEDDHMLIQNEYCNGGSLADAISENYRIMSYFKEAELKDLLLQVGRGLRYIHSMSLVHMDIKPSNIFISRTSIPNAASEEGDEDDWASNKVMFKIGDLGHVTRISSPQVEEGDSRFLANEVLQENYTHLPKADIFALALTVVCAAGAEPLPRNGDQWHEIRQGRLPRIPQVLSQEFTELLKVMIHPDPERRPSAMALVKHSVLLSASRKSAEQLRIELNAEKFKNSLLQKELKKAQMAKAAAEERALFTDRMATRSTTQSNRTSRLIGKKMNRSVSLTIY
Protocol: Wee1 kinase was assayed using a time-resolved fluorescence equilibrium binding assay monitoring displacement of a rapidly reversible Oregon Green-labeled ATP-competitive kinase probe (N-(2-(2-(2-(4-(4-(5-chloro-4-(2-(1-hydroxycyclobutyl)thiazol-5-yl)-1H-pyrrolo[2,3-b]pyridin-2-yl)phenyl)piperazin-1-yl)ethoxy)ethoxy)ethyl)-2′,7′-difluoro-3′,6′-dihydroxy-3-oxo-3H-spiro[isobenzofuran-1,9′-xanthene]-5-carboxamide) by competitive Wee1 inhibitors.
Table 1 depicts enzyme binding data (Ki)for exemplary compounds.

SMILES	Ki [nM]
Cc1cn(-c2c(Cl)cccc2Cl)c(=O)c2cnc(Nc3ccc4c(c3)CN(C)CC4(C)C)nc12 [Example 79, 6-(2,6-dichlorophenyl)-8-methyl-2-[(2,4,4-trimethyl-1,2,3,4-tetrahydroisoquinolin-7-yl)amino]pyrido[4,3-d]pyrimidin-5(6H)-one]	0.4
Cc1cn(-c2c(Cl)cccc2Cl)c(=O)c2cnc(Nc3ccc4c(c3)CNCC4)nc12 [Example 80, 6-(2,6-dichlorophenyl)-8-methyl-2-(1,2,3,4-tetrahydroisoquinolin-7-ylamino)pyrido[4,3-d]pyrimidin-5(6H)-one]	0.5
O=c1c2cnc(Nc3ccc4c(c3)CCNC4)nc2c(-c2ncc[nH]2)cn1-c1c(Cl)cccc1Cl [Example 81, 6-(2,6-dichlorophenyl)-8-(1H-imidazol-2-yl)-2-(1,2,3,4-tetrahydroisoquinolin-6-ylamino)pyrido[4,3-d]pyrimidin-5(6H)-one]	0.4
Cc1cccc(C)c1-n1cc(C)c2nc(Nc3ccc4c(c3)CN(C)CC43CC3)ncc2c1=O [Example 88, 6-(2,6-dimethylphenyl)-8-methyl-2-[(2′-methyl-2′,3′-dihydro-1′H-spiro[cyclopropane-1,4′-isoquinolin]-7′-yl)amino]pyrido[4,3-d]pyrimidin-5(6H)-one]	0.544
Cc1cccc(C)c1-n1cc(C)c2nc(Nc3ccc(N4CCC(N(C)C)CC4)cc3)ncc2c1=O [Example 89, 2-({4-[4-(dimethylamino)piperidin-1-yl]phenyl}amino)-6-(2,6-dimethylphenyl)-8-methylpyrido[4,3-d]pyrimidin-5(6H)-one]	0.897
CN1Cc2cc(Nc3ncc4c(=O)n(-c5c(Cl)cccc5Cl)cc(C(F)F)c4n3)ccc2C2(CC2)C1 [Example 94, 6-(2,6-dichlorophenyl)-8-(difluoromethyl)-2-[(2′-methyl-2′,3′-dihydro-1′H-spiro[cyclopropane-1,4′-isoquinolin]-7′-yl)amino]pyrido[4,3-d]pyrimidin-5(6H)-one]	0.568
O=c1c2cnc(Nc3ccc4c(c3)CC(N3CCCC3)C4)nc2c(C(F)F)cn1-c1c(Cl)cccc1Cl (stereo not drawn) [Example 95, 6-(2,6-dichlorophenyl)-8-(difluoromethyl)-2-{[2-(pyrrolidin-1-yl)-2,3-dihydro-1H-inden-5-yl]amino}pyrido[4,3-d]pyrimidin-5(6H)-one]	0.38
Cc1cn(-c2c(Cl)cccc2Cl)c(=O)c2cnc(Nc3ccc(S(=O)(=O)CCN(C)C)cc3)nc12 [Example 96, 6-(2,6-dichlorophenyl)-2-[(4-{[2-(dimethylamino)ethyl]sulfonyl}phenyl)amino]-8-methylpyrido[4,3-d]pyrimidin-5(6H)-one]	1.8
Cc1cn(-c2cccc3cccnc23)c(=O)c2cnc(Nc3ccc4c(c3)CN(C)CC43CC3)nc12 [Example 97, 8-methyl-2-[(2′-methyl-2′,3′-dihydro-1′H-spiro[cyclopropane-1,4′-isoquinolin]-7′-yl)amino]-6-(quinolin-8-yl)pyrido[4,3-d]pyrimidin-5(6H)-one]	28.2
Cc1cn(-c2ccccc2Cl)c(=O)c2cnc(Nc3ccc4c(c3)CNCC4)nc12 [Example 98, 6-(2-chlorophenyl)-8-methyl-2-(1,2,3,4-tetrahydroisoquinolin-7-ylamino)pyrido[4,3-d]pyrimidin-5(6H)-one]	0.5
Cc1cn(-c2ccccc2Cl)c(=O)c2cnc(Nc3ccc(N4CCC(N(C)C)CC4)cc3)nc12 [Example 99, 6-(2-chlorophenyl)-2-({4-[4-(dimethylamino)piperidin-1-yl]phenyl}amino)-8-methylpyrido[4,3-d]pyrimidin-5(6H)-one]	0.9
Cc1cn(-c2cccc3ccccc23)c(=O)c2cnc(Nc3ccc4c(c3)CNCC4)nc12 [Example 100, 8-methyl-6-(naphthalen-1-yl)-2-(1,2,3,4-tetrahydroisoquinolin-7-ylamino)pyrido[4,3-d]pyrimidin-5(6H)-one]	4.3
Cc1cn(-c2cccc3ccccc23)c(=O)c2cnc(Nc3ccc(N4CCC(N(C)C)CC4)cc3)nc12 [Example 101, 2-({4-[4-(dimethylamino)piperidin-1-yl]phenyl}amino)-8-methyl-6-(naphthalen-1-yl)pyrido[4,3-d]pyrimidin-5(6H)-one]	2.8
Cc1cn(-c2cc(Cl)ccc2Cl)c(=O)c2cnc(Nc3ccc4c(c3)CNCC4)nc12 [Example 102, 6-(2,5-dichlorophenyl)-8-methyl-2-(1,2,3,4-tetrahydroisoquinolin-7-ylamino)pyrido[4,3-d]pyrimidin-5(6H)-one]	17.8
Cc1cccc(F)c1-n1cc(C)c2nc(Nc3ccc4c(c3)CNCC4)ncc2c1=O [Example 103, 6-(2-fluoro-6-methylphenyl)-8-methyl-2-(1,2,3,4-tetrahydroisoquinolin-7-ylamino)pyrido[4,3-d]pyrimidin-5(6H)-one]	0.9
Cc1cccc(F)c1-n1cc(C)c2nc(Nc3ccc(N4CCC(N(C)C)CC4)cc3)ncc2c1=O [Example 104, 2-({4-[4-(dimethylamino)piperidin-1-yl]phenyl}amino)-6-(2-fluoro-6-methylphenyl)-8-methylpyrido[4,3-d]pyrimidin-5(6H)-one]	0.9
Cc1cn(-c2ccccc2-c2cnco2)c(=O)c2cnc(Nc3ccc4c(c3)CNCC4)nc12 [Example 105, 8-methyl-6-[2-(1,3-oxazol-5-yl)phenyl]-2-(1,2,3,4-tetrahydroisoquinolin-7-ylamino)pyrido[4,3-d]pyrimidin-5(6H)-one]	122
Cc1cn(-c2ccccc2-c2cnco2)c(=O)c2cnc(Nc3ccc(N4CCC(N(C)C)CC4)cc3)nc12 [Example 106, 2-({4-[4-(dimethylamino)piperidin-1-yl]phenyl}amino)-8-methyl-6-[2-(1,3-oxazol-5-yl)phenyl]pyrido[4,3-d]pyrimidin-5(6H)-one]	115
COC(=O)c1ccc(Cl)c(-n2cc(C)c3nc(Nc4ccc5c(c4)CNCC5)ncc3c2=O)c1 [Example 107, methyl 4-chloro-3-[8-methyl-5-oxo-2-(1,2,3,4-tetrahydroisoquinolin-7-ylamino)pyrido[4,3-d]pyrimidin-6(5H)-yl]benzoate]	321
COC(=O)c1ccc(Cl)c(-n2cc(C)c3nc(Nc4ccc(N5CCC(N(C)C)CC5)cc4)ncc3c2=O)c1 [Example 108, methyl 4-chloro-3-[2-({4-[4-(dimethylamino)piperidin-1-yl]phenyl}amino)-8-methyl-5-oxopyrido[4,3-d]pyrimidin-6(5H)-yl]benzoate]	242

Now from value to molecule:

Ki [nM]	SMILES
0.1	CN1CCC(c2ccc(Nc3ncc4c(=O)n(-c5c(Cl)cccc5Cl)cc(C(F)F)c4n3)cc2)CC1 [Example 82, 6-(2,6-dichlorophenyl)-8-(difluoromethyl)-2-{[4-(1-methylpiperidin-4-yl)phenyl]amino}pyrido[4,3-d]pyrimidin-5 (6H)-one]
0.2	CN(C)C1Cc2ccc(Nc3ncc4c(=O)n(-c5c(Cl)cccc5Cl)cc(C(F)F)c4n3)cc2C1 (stereo not drawn) [Example 83, 6-(2,6-dichlorophenyl)-8-(difluoromethyl)-2-{[2-(dimethylamino)-2,3-dihydro-1H-inden-5-yl]amino}pyrido[4,3-d]pyrimidin-5(6H)-one]
0.328	CN(C)C1CCN(c2ccc(Nc3ncc4c(=O)n(-c5c(Cl)cccc5Cl)cc(C(F)F)c4n3)cc2)CC1 [Example 84, 6-(2,6-dichlorophenyl)-8-(difluoromethyl)-2-({4-[4-(dimethylamino)piperidin-1-yl]phenyl}amino)pyrido[4,3-d]pyrimidin-5(6H)-one]
0.265	CC1(C)CNCc2cc(Nc3ncc4c(=O)n(-c5c(Cl)cccc5Cl)cc(C(F)F)c4n3)ccc21 [Example 85, 6-(2,6-dichlorophenyl)-8-(difluoromethyl)-2-[(4,4-dimethyl-1,2,3,4-tetrahydroisoquinolin-7-yl)amino]pyrido[4,3-d]pyrimidin-5(6H)-one]
0.305	O=c1c2cnc(Nc3ccc4c(c3)CNCC43CC3)nc2c(C(F)F)cn1-c1c(Cl)cccc1Cl [Example 86, 6-(2,6-dichlorophenyl)-8-(difluoromethyl)-2-(2′,3′-dihydro-1′H-spiro[cyclopropane-1,4′-isoquinolin]-7′-ylamino)pyrido[4,3-d]pyrimidin-5(6H)-one]
0.254	O=c1c2cnc(Nc3ccc4c(c3)CNCC4)nc2c(C(F)F)cn1-c1c(Cl)cccc1Cl [Example 87, 6-(2,6-dichlorophenyl)-8-(difluoromethyl)-2-(1,2,3,4-tetrahydroisoquinolin-7-ylamino)pyrido[4,3-d]pyrimidin-5(6H)-one]
0.193	Cc1cccc(Cl)c1-n1cc(C)c2nc(Nc3ccc4c(c3)CN(C)CC43CC3)ncc2c1=O [Example 90, 6-(2-chloro-6-methylphenyl)-8-methyl-2-[(2′-methyl-2′,3′-dihydro-1′H-spiro[cyclopropane-1,4′-isoquinolin]-7′-yl)amino]pyrido[4,3-d]pyrimidin-5(6H)-one]
0.22	Cc1cccc(Cl)c1-n1cc(C)c2nc(Nc3ccc(N4CCC(N(C)C)CC4)cc3)ncc2c1=O [Example 91, 6-(2-chloro-6-methylphenyl)-2-({4-[4-(dimethylamino)piperidin-1-yl]phenyl}amino)-8-methylpyrido[4,3-d]pyrimidin-5(6H)-one]
0.378	Cc1cn(-c2c(Cl)cccc2Cl)c(=O)c2cnc(Nc3ccc(SCCN(C)C)cc3)nc12 [Example 92, 6-(2,6-dichlorophenyl)-2-[(4-{[2-(dimethylamino)ethyl]sulfanyl}phenyl)amino]-8-methylpyrido[4,3-d]pyrimidin-5(6H)-one]
0.358	O=c1c2cnc(Nc3ccc4c(c3)CCNC4)nc2c(C(F)F)cn1-c1c(Cl)cccc1Cl [Example 93, 6-(2,6-dichlorophenyl)-8-(difluoromethyl)-2-(1,2,3,4-tetrahydroisoquinolin-6-ylamino)pyrido[4,3-d]pyrimidin-5(6H)-one]
